The text below walks through data of ChEMBL document CHEMBL3769390, “Inhibitors of the Antiapoptotic Myeloid Cell Leukemia-1 (Mcl-1) May Provide Effective Treatment for Cancer” (ACS Med Chem Lett, 2015).

Bounds are passed on as bounds.

Test [1] is described as follows: Inhibition of Bcl-2 (residues i_207 A96T/G110R, delta 35-91, replaced with Bcl-xL35-50) (unknown origin) using FITC-AHx-GQVGRQLAIIGDDINR-NH2 as substrate after 90 mins by fluorescence polarization anisotropy competition assay. Details: species or system Homo sapiens. Background: In fluorescence polarisation assays a small probe gives low polarisation when free and higher when bound to something large.

Test [2] in a line: Inhibition of Bcl-xL (residues 1-209, loop 45 to 86 deleted) (unknown origin) using FITC-AHx-GQVGRQLAIIGDDINR-NH2 as substrate after 90 mins by fluorescence polarization anisotropy competition assay. Details: species or system Homo sapiens.
Test [3] is described as follows: Antiproliferative activity against human ALMC2 cells after 72 hrs by Cell TiterGlo assay. Type of test: functional, cell-based. The note with it: ALMC2, 72 h. (In general: In ATP-based viability assays light output follows the ATP content of the culture.)
Test [4] in a line: Antiproliferative activity against human ALMC1 cells after 72 hrs by Cell TiterGlo assay. Type of test: functional, cell-based. The note with it: ALMC1, 72 h.
The test system of the next test is K562. Put plainly: Antiproliferative activity against human K562 cells after 72 hrs by Cell TiterGlo assay. Type of test: functional, cell-based. Particulars: K562, 72 h.
Test [5] in a line: Antiproliferative activity against human NCI-H929 cells after 72 hrs by Cell TiterGlo assay. The note with it: NCI-H929, 72 h. Type of test: functional, cell-based.
Test [6] concerns the target T1, Induced myeloid leukemia cell differentiation protein Mcl-1 (Homo sapiens, UniProt Q07820). Put plainly: Inhibition of recombinant Mcl-1 (residues 172-327) (unknown origin) using FITC-AHx-EARIAQELRRIGDEFNETYTR-NH2 as substrate after 90 mins by fluorescence polarization anisotropy competition assay.
Test [7] addresses T1, Induced myeloid leukemia cell differentiation protein Mcl-1. Put plainly: Inhibition of recombinant Mcl-1 (residues 172-327) (unknown origin) using FITC-AHx-GQVGRQLAIIGDDINR-NH2 as substrate after 90 mins by fluorescence polarization anisotropy competition assay.
Test [8] in a line: Antiproliferative activity against human OPM2 cells after 72 hrs by Cell TiterGlo assay. Type of test: functional, cell-based. The note with it: OPM-2, 72 h.

T1 sequence (Q07820 whole entry, the tested form may be a part): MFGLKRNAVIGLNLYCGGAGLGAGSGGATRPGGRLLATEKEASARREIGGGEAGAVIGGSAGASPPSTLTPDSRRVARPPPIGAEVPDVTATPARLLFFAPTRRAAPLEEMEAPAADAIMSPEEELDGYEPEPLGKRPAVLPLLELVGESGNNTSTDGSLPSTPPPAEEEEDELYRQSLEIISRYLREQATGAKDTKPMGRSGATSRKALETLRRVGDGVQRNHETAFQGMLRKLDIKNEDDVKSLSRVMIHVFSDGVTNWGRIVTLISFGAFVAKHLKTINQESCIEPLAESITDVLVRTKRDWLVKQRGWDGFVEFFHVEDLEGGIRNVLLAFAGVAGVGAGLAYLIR

In general, Ki refers to a measure of affinity in units of concentration, obtained from inhibition or displacement. For `Cc1cc(OCCCc2c(C(=O)NCc3cc(C(=O)O)ccn3)[nH]c3c(-c4c(C)nn(C)c4C)cccc23)cc(C)c1Cl`, the Ki in test [1] worked out at 27 µM; in test [2], 7.9 µM.

A word on the IC50: it is the concentration that gives 50% inhibition. Regarding `Cc1cc(OCCCc2c3n(c4c(-c5c(C)nn(C)c5C)c(Cl)ccc24)CCCN(c2cccc(C(=O)O)c2)C3=O)cc(C)c1Cl`, the 50% inhibitory concentration (IC50) in [3] came out at 20.8 µM; in test [4], 12 µM; with K562, 23.2 µM; in test [5], 6.3 µM. This molecule also yielded a Ki in test [2] of 1.9 µM.

As for `Cc1cc(OCCCc2c(C(=O)NCc3cc(C(=O)O)n(C)c3)[nH]c3c(-c4c(C)nn(C)c4C)cccc23)cc(C)c1Cl`, the values for the Ki in [1], in test [6] and in [2] were greater than 100 µM, less than 0.05 µM and 3.54 µM, respectively.

With `Cc1cc(OCCCc2c(C(=O)NC(C)(C)C)[nH]c3ccccc23)cc(C)c1Cl`, the Ki in test [6] is 1 µM.

As for `Cc1cc(OCCCc2c3n(c4c(-c5c(C)nn(C)c5C)cccc24)CCN(Cc2cccc(C(=O)O)c2)C3=O)cc(C)c1Cl`, the Ki in [1] was 6.44 µM; in [7], less than 0.007 µM; in test [6], less than 0.05 µM; in [2] it was 2.2 µM. Also, the IC50 in [3] was 33.9 µM; in test [8] it was 16.3 µM; in test [4], 13.1 µM; with K562, 40 µM; in [5], 15 µM.

Consider `Cc1cc(OCCCc2c(C(=O)Nc3ccc(C#N)cc3)[nH]c3c(-c4c(C)nn(C)c4C)c(Cl)ccc23)cc(C)c1Cl`, for which the Ki in test [6] worked out at 0.051 µM.
